Entries after “also recorded” stand apart in the source; their conditions may differ.
Key:
zebrafish = test: Zebrafish TUNEL in situ staining of apoptotic cells; type: in vivo; conditions: gill, skeletal muscle and tail sections, versus untreated animals
Experimental: FIG. 18: Apoptotic cells detected by TUNEL technology in gill, skeletal muscle and tail sections.
SERF2 was administered by a) injection of the native protein into the yolk sac of 3 day post fertilization (dpf) animals and freshly fertilized eggs (2-8 cell stage) in various protein concentrations or chronic incubation with the native protein to supply it via diffusion. For in deep analysis of angiogenic effects flk-1 transgenic animals with gfp (green fluorescent protein) labelled endothelium were used. For all other experiments wildtype (wdt) animals were used.
Apoptotic. cells were detected by TUNEL technology using in situ Cell Death Detection Kit, Fluorescein (Roche Applied Science, Mannheim, Germany) according to the manufacturer's instructions. Statistical Analysis. The acquired data statistically analyzed by using a two tailed students t-Test (Microsoft Excel) and significance was accepted when P<0.05. Data are presented as mean±S.E.M.

[1] = test system: rat cardiomyocytes (H9c2); test: AlamarBlue proliferation assay, H9c2 cells; type: cell-based
Experimental: FIG. 3: Effect of SERF2 on Proliferation of H9c2 cells is dose-dependent. Proliferation assay was performed essentially as in FIG. 2. Incubation time was 24 hrs, added SERF2 concentrations ranged from 20 to 1.25 μg/ml.
(§1) FIG. 5: Kinetics of the Effect of SERF2 on Proliferation of rat cardiomyocytes (H9c2). Cells stimulated with SERF2 (green line) responded with proliferation and reached max. proliferation rate after 6 days. Proliferation assay was performed essentially as in FIG. 2. Incubation times were 24, 48, 72 and 144 hrs, the SERF2 concentration added was 5 μg/ml.
Rat derived embryonic cardiomyocytes H9c2 (ATTC CRL-1446) and embryonic skeletal muscle cells L6 (ATTC CRL-1458) were cultured in Dulbecco's Modified Eagle Medium high glucose (DMEM, Sigma Aldrich) containing 10% v/v fetal calf serum (FCS, PAA) and 1% v/v Penicillin/Streptamycin (Gibco). Cells were grown in 80 cm2 cell culture flasks (NUNC) using 15 ml growth medium. Both cell lines were incubated under humidified atmosphere at +37° C. and 5% v/v CO^2. Cells were splitted when a confluency of approximately 90% was reached. Usually a splitting ratio of 1:5 or 1:10 was applied. For this purpose, supernatant was removed and cells were washed using 10 ml Dulbecco's Phosphate Buffered Saline (DPBS, Gibco). Cells were harvested by addition of 3 ml Trypsin/EDTA (Gibco) followed by an incubation of 5 to 10 min at +37° C. Successful detachment of cells was checked under the microscope (IMT-2, Olympus) and 7 ml growth medium were added. Cell number and viability were determined by trypanblue exclusion performed by using an automated cell analyzer (CEDEX, Innovatis). For this, 950 μl DPBS and 50 μl cell-suspension were mixed and used for analysis.
Proliferation was measured using the AlamarBlue™ assay according to the manufacturer's protocol. Briefly, 1×10^4 cells were seeded per well containing 100 μl growth medium. […] Fluorescence (Ex. 570 nm, Em. 585 nm) was measured using a Varioskan Flash multi-plate reader (Thermo Scientific). Data were evaluated using Microsoft Excel and GraphPad Prism V4.

[2] = test system: rat skeletal muscle cells (L6); test: AlamarBlue proliferation assay, L6 cells; type: cell-based
Experimental: FIG. 2: Effect of SERF2 on Proliferation of rat skeletal muscle cells (L6). 1×10^4 L6 cells were seeded per well containing 100 μl growth medium. Cells were incubated over night at +37° C., 5% v/v CO^2 and humidified atmosphere. Prior performing the assay, viability of cells was checked under the microscope. Cells were washed three times with 100 μl DPBS per well. SERF2 was diluted […]) in DMEM and 100 μl/well were added to the cells. Finally, cells were incubated at +37° C. for various time points. Subsequently 10 μl/well AlamarBlue™ reagent (Invitrogen) was added. Plates were incubated for one hour at +37° C. Fluorescence (Ex. 570 nm, Em. 585 nm) was measured using a Varioskan Flash multi-plate reader (Thermo Scientific). Obtained Data were evaluated using Microsoft Excel and Graph Pad Prism V4.
as §1, with “6:” for “5:”, “skeletal muscle cells (L6).” for “cardiomyocytes (H9c2).”, “reached a” for “reached”
Rat derived embryonic cardiomyocytes H9c2 (ATTC CRL-1446) and embryonic skeletal muscle cells L6 (ATTC CRL-1458) were cultured in Dulbecco's Modified Eagle Medium high glucose (DMEM, Sigma Aldrich) containing 10% v/v fetal calf serum (FCS, PAA) and 1% v/v Penicillin/Streptamycin (Gibco). Cells were grown in 80 cm2 cell culture flasks (NUNC) using 15 ml growth medium. Both cell lines were incubated under humidified atmosphere at +37° C. and 5% v/v CO^2. Cells were splitted when a confluency of approximately 90% was reached. […] Cell number and viability were determined by trypanblue exclusion performed by using an automated cell analyzer (CEDEX, Innovatis). […]
Proliferation was measured using the AlamarBlue™ assay according to the manufacturer's protocol. […] Fluorescence (Ex. 570 nm, Em. 585 nm) was measured using a Varioskan Flash multi-plate reader (Thermo Scientific). Data were evaluated using Microsoft Excel and GraphPad Prism V4.

[3] = SERF2 5 μg/ml, incubation 24, 48, 72 and 144 hrs

## SERF2: Small EDRK-rich factor 2, mature protein of 59 amino acids (SEQ ID NO: 1) (MTRGNQRELARQKNMKKQSDSVKGKRRDDGLSAAARKQRDSEIMQQKQKKANEKKEEPK; homo sapiens)
zebrafish
  number of apoptotic cells (TUNEL): reduced number of apoptotic cells; also recorded: lower in different regions as compared to untreated animals
[1]; 24 h treatment, SERF2 20 to 1.25 μg/ml
  proliferative effect on H9c2 cells: proliferative effect in a dose-dependent manner
[1]; AlamarBlue
  SERF2 concentration at which proliferative effect peaks, H9c2: 5 µg/mL
[1]; [3]
  time to max. proliferation rate, H9c2: 6 days
[2]; AlamarBlue, single treatment, read daily until day six
  proliferative effect on L6 rat skeletal muscle cells: proliferative effect on L6 rat skeletal muscle cells in a dose- and time-dependent manner
[2]; [3]
  time to max. proliferation rate, L6: 6 days
[2]; incubation time
  time of maximum proliferative effect, L6: three to six

From patent US9637529B2, “Medicament for atrophy treatment or increasing cell growth” (SIMU TRADE CONSULTING GMBH & CO. LEASING KG, priority 2012, dated 2017)
